Reference: patent US5358951A, “Angiotensin II receptor blocking 2, 3, 6 substituted quinazolinones” (American Cyanamid Company, priority 1993, dated 1994)

Tested on: vasopressor response of angiotensin II
Experiment: AII Challenge: antagonism of angiotensin II vasopressor response
Format: in vivo
Conditions: for inhibition in vivo at 1 mg/kg / inhibition in vivo at 3 mg/kg / inhibition in vivo at 5 mg/kg: Rattus norvegicus; for inhibition in vivo at 1 mg/kg / inhibition in vivo at 3 mg/kg: iv; for inhibition in vivo at 5 mg/kg: po
Outline: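 Percent antagonism is based on the systolic blood pressure rise (mmHg) to i.v. angiotensin II at 0.05 and 0.1 ug/kg. Each rat's own predose response was taken as 100%. Challenges were repeated from 30 to 300 min after i.v., i.p. or oral compound in cannulated conscious male SHR, 16-20 weeks old.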

[1] = 3 mg/kg I.V., AII 0.05 mcg/kg IV, 30 min post dose
[2] = 3 mg/kg I.V., AII 0.05 mcg/kg IV, 60 min post dose
[3] = 3 mg/kg I.V., AII 0.05 mcg/kg IV, 90 min post dose
[4] = 3 mg/kg I.V., AII 0.05 mcg/kg IV, 120 min post dose
[5] = 3 mg/kg I.V., AII 0.05 mcg/kg IV, 180 min post dose
[6] = 3 mg/kg I.V., AII 0.1 mcg/kg IV, 30 min post dose
[7] = 3 mg/kg I.V., AII 0.1 mcg/kg IV, 60 min post dose
[8] = 3 mg/kg I.V., AII 0.1 mcg/kg IV, 90 min post dose
[9] = 3 mg/kg I.V., AII 0.1 mcg/kg IV, 120 min post dose
[10] = 3 mg/kg I.V., AII 0.1 mcg/kg IV, 180 min post dose
[11] = 0.5 h, 3 mg/kg I.V., AII 0.05 mcg/kg IV, 30 min post dose
[12] = 0.5 h, 3 mg/kg I.V., AII 0.1 mcg/kg IV, 30 min post dose
[13] = 1 h, 3 mg/kg I.V., AII 0.05 mcg/kg IV, 60 min post dose
[14] = 1 h, 3 mg/kg I.V., AII 0.1 mcg/kg IV, 60 min post dose
[15] = 2 h, 3 mg/kg I.V., AII 0.05 mcg/kg IV, 120 min post dose
[16] = 2 h, 3 mg/kg I.V., AII 0.1 mcg/kg IV, 120 min post dose
[17] = 3 h, 3 mg/kg I.V., AII 0.05 mcg/kg IV, 180 min post dose
[18] = 3 h, 3 mg/kg I.V., AII 0.1 mcg/kg IV, 180 min post dose
[19] = […], 3 mg/kg I.V., AII 0.05 mcg/kg IV, 90 min post dose
[20] = […], 3 mg/kg I.V., AII 0.1 mcg/kg IV, 90 min post dose

Structure (SMILES): CCCCc1nc2ccc([C@]3(CC)C[C@@H]4CCCN4O3)cc2c(=O)n1Cc1ccc(-c2ccccc2-c2nnn[nH]2)cc1 (relative stereo) [Example 72, Trans-2-butyl-6-(2-ethylhexahydropyrrolo[1,2-b]isoxazol-2-yl)-3-[[2'-(1H-tetrazol-5-yl)[1,1'-biphenyl]-4-yl]methyl]-4(3H)-quinazolinone]
- Response Average Change (1 mg/kg i.v., AII 0.05 mcg/kg IV, 30 min post dose): 20 mmHg
- Response Average Change (1 mg/kg i.v., AII 0.05 mcg/kg IV, 60 min post dose): 15 mmHg
- Response Average Change (1 mg/kg i.v., AII 0.05 mcg/kg IV, 90 min post dose): 17.5 mmHg
- Response Average Change (1 mg/kg i.v., AII 0.05 mcg/kg IV, 120 min post dose): 22.5 mmHg
- Response Average Change (1 mg/kg i.v., AII 0.05 mcg/kg IV, 180 min post dose): 36.5 mmHg
- Response Average Change (1 mg/kg i.v., AII 0.05 mcg/kg IV, 240 min post dose): 30 mmHg
- Response Average Change (1 mg/kg i.v., AII 0.05 mcg/kg IV, 300 min post dose): 37.5 mmHg
- Response Average Change (1 mg/kg i.v., AII 0.1 mcg/kg IV, 30 min post dose): 25.5 mmHg
- Response Average Change (1 mg/kg i.v., AII 0.1 mcg/kg IV, 60 min post dose): 17.5 mmHg
- Response Average Change (1 mg/kg i.v., AII 0.1 mcg/kg IV, 90 min post dose): 32.5 mmHg
- Response Average Change (1 mg/kg i.v., AII 0.1 mcg/kg IV, 120 min post dose): 25 mmHg
- Response Average Change (1 mg/kg i.v., AII 0.1 mcg/kg IV, 180 min post dose): 35 mmHg
- Response Average Change (1 mg/kg i.v., AII 0.1 mcg/kg IV, 240 min post dose): 40 mmHg
- Response Average Change (1 mg/kg i.v., AII 0.1 mcg/kg IV, 300 min post dose): 42.5 mmHg
- inhibition in vivo at 1 mg/kg (0.5 h, 1 mg/kg i.v., AII 0.05 mcg/kg IV, 30 min post dose): 60%
- inhibition in vivo at 1 mg/kg (0.5 h, 1 mg/kg i.v., AII 0.1 mcg/kg IV, 30 min post dose): 58%
- inhibition in vivo at 1 mg/kg (1 h, 1 mg/kg i.v., AII 0.05 mcg/kg IV, 60 min post dose): 70%
- inhibition in vivo at 1 mg/kg (1 h, 1 mg/kg i.v., AII 0.1 mcg/kg IV, 60 min post dose): 71%
- inhibition in vivo at 1 mg/kg (2 h, 1 mg/kg i.v., AII 0.05 mcg/kg IV, 120 min post dose): 55%
- inhibition in vivo at 1 mg/kg (2 h, 1 mg/kg i.v., AII 0.1 mcg/kg IV, 120 min post dose): 58%
- inhibition in vivo at 1 mg/kg (3 h, 1 mg/kg i.v., AII 0.05 mcg/kg IV, 180 min post dose): 27%
- inhibition in vivo at 1 mg/kg (3 h, 1 mg/kg i.v., AII 0.1 mcg/kg IV, 180 min post dose): 42%
- inhibition in vivo at 1 mg/kg (4 h, 1 mg/kg i.v., AII 0.05 mcg/kg IV, 240 min post dose): 40%
- inhibition in vivo at 1 mg/kg (5 h, 1 mg/kg i.v., AII 0.05 mcg/kg IV, 300 min post dose): 35%
- inhibition in vivo at 1 mg/kg (5 h, 1 mg/kg i.v., AII 0.1 mcg/kg IV, 300 min post dose): 29%
- inhibition in vivo at 1 mg/kg ([…], 1 mg/kg i.v., AII 0.05 mcg/kg IV, 90 min post dose): 65%
- inhibition in vivo at 1 mg/kg ([…], 1 mg/kg i.v., AII 0.1 mcg/kg IV, 90 min post dose): 46%

Structure (SMILES): CCCCc1nc2ccc([C@@H]3C[C@H]4CCC(C)(C)N4O3)cc2c(=O)n1Cc1ccc(-c2ccccc2-c2nnn[nH]2)cc1 (relative stereo) [Example 61, (Cis)-2-Butyl-6-(hexahydro-6,6-dimethylpyrrolo[1,2-b]isoxazol-2-yl)-3-[[2'-(1H-tetrazol-5-yl][1,1'-biphenyl]-4-yl]methyl]-4(3H)-quinazolinone]
- Response Average Change [1]: 7.5 mmHg
- Response Average Change [2]: 10 mmHg
- Response Average Change [3]: 6 mmHg
- Response Average Change [4]: 13.5 mmHg
- Response Average Change [5]: 15 mmHg
- Response Average Change [6]: 7.5 mmHg
- Response Average Change [7]: 12.5 mmHg
- Response Average Change [8]: 3.5 mmHg
- Response Average Change [9]: 15 mmHg
- Response Average Change [10]: 16 mmHg
- Response Average Change (5 mg/kg P.O., AII 0.05 mcg/kg IV, 30 min post dose): 27.5 mmHg
- Response Average Change (5 mg/kg P.O., AII 0.05 mcg/kg IV, 60 min post dose): 29 mmHg
- Response Average Change (5 mg/kg P.O., AII 0.05 mcg/kg IV, 90 min post dose): 30 mmHg
- Response Average Change (5 mg/kg P.O., AII 0.05 mcg/kg IV, 120 min post dose): 22.5 mmHg
- Response Average Change (5 mg/kg P.O., AII 0.05 mcg/kg IV, 180 min post dose): 35 mmHg
- Response Average Change (5 mg/kg P.O., AII 0.1 mcg/kg IV, 30 min post dose): 32.5 mmHg
- Response Average Change (5 mg/kg P.O., AII 0.1 mcg/kg IV, 60 min post dose): 35 mmHg
- Response Average Change (5 mg/kg P.O., AII 0.1 mcg/kg IV, 90 min post dose): 29 mmHg
- Response Average Change (5 mg/kg P.O., AII 0.1 mcg/kg IV, 120 min post dose): 30 mmHg
- Response Average Change (5 mg/kg P.O., AII 0.1 mcg/kg IV, 180 min post dose): 35 mmHg
- inhibition in vivo at 3 mg/kg [11]: 83%
- inhibition in vivo at 3 mg/kg [12]: 84%
- inhibition in vivo at 3 mg/kg [13]: 78%
- inhibition in vivo at 3 mg/kg [14]: 73%
- inhibition in vivo at 3 mg/kg [15]: 70%
- inhibition in vivo at 3 mg/kg [16]: 67%
- inhibition in vivo at 3 mg/kg [17]: 67%
- inhibition in vivo at 3 mg/kg [18]: 65%
- inhibition in vivo at 3 mg/kg [19]: 87%
- inhibition in vivo at 3 mg/kg [20]: 92%
- inhibition in vivo at 5 mg/kg (0.5 h, 5 mg/kg P.O., AII 0.05 mcg/kg IV, 30 min post dose): 40%
- inhibition in vivo at 5 mg/kg (0.5 h, 5 mg/kg P.O., AII 0.1 mcg/kg IV, 30 min post dose): 31%
- inhibition in vivo at 5 mg/kg (1 h, 5 mg/kg P.O., AII 0.05 mcg/kg IV, 60 min post dose): 37%
- inhibition in vivo at 5 mg/kg (1 h, 5 mg/kg P.O., AII 0.1 mcg/kg IV, 60 min post dose): 26%
- inhibition in vivo at 5 mg/kg (2 h, 5 mg/kg P.O., AII 0.05 mcg/kg IV, 120 min post dose): 51%
- inhibition in vivo at 5 mg/kg (2 h, 5 mg/kg P.O., AII 0.1 mcg/kg IV, 120 min post dose): 36%
- inhibition in vivo at 5 mg/kg (3 h, 5 mg/kg P.O., AII 0.05 mcg/kg IV, 180 min post dose): 24%
- inhibition in vivo at 5 mg/kg (3 h, 5 mg/kg P.O., AII 0.1 mcg/kg IV, 180 min post dose): 26%
- inhibition in vivo at 5 mg/kg ([…], 5 mg/kg P.O., AII 0.05 mcg/kg IV, 90 min post dose): 35%
- inhibition in vivo at 5 mg/kg ([…], 5 mg/kg P.O., AII 0.1 mcg/kg IV, 90 min post dose): 38%

Structure (SMILES): CCCCc1nc2ccc([C@H]3C[C@]4(C)CCCCN4O3)cc2c(=O)n1Cc1ccc(-c2ccccc2-c2nnn[nH]2)cc1 (relative stereo) [Example 65]
- Response Average Change [1]: 2.5 mmHg
- Response Average Change [2]: 15.5 mmHg
- Response Average Change [3]: 11 mmHg
- Response Average Change [4]: 8 mmHg
- Response Average Change [5]: 25 mmHg
- Response Average Change [6]: 2.5 mmHg
- Response Average Change [7]: 11 mmHg
- Response Average Change [8]: 16.5 mmHg
- Response Average Change [9]: 12.5 mmHg
- Response Average Change [10]: 17.5 mmHg
- inhibition in vivo at 3 mg/kg [11]: 95%
- inhibition in vivo at 3 mg/kg [12]: 95%
- inhibition in vivo at 3 mg/kg [13]: 66%
- inhibition in vivo at 3 mg/kg [14]: 77%
- inhibition in vivo at 3 mg/kg [15]: 82%
- inhibition in vivo at 3 mg/kg [16]: 74%
- inhibition in vivo at 3 mg/kg [17]: 45%
- inhibition in vivo at 3 mg/kg [18]: 64%
- inhibition in vivo at 3 mg/kg [19]: 76%
- inhibition in vivo at 3 mg/kg [20]: 66%
